Data taken from publication PMC11758220, “Identification of a Privileged Scaffold for Inhibition of Sterol Transport Proteins through the Synthesis and Ring Distortion of Diverse, Pseudo-Natural Products” (ACS Central Science, 2025).

Target: T1, ORP1 (Homo sapiens, UniProt Q9BXW6)
T1 construct: ORP1(534-950); host or cells: E. coli BL21(DE3)
T1 sequence (Q9BXW6 534-950): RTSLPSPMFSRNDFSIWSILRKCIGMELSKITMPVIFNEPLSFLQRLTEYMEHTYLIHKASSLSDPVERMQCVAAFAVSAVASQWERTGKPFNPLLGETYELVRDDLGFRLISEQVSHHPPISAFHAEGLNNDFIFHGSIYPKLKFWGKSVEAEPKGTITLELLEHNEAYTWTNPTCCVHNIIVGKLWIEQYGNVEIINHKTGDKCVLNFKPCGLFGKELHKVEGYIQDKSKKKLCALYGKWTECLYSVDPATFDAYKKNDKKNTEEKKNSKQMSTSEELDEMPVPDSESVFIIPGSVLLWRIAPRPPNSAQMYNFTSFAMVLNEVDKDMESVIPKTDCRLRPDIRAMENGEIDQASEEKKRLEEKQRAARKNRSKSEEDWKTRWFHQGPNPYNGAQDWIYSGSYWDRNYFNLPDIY
Test: Effect on intrinsic protein fluorescence, ORP1
Details: protein 1 µM, excitation 280 nm
Description: Effect of spirooxepinoindoles on intrinsic protein fluorescence
Figure S12: Spirooxepinoindoles 21a and 15f affect intrinsic protein fluorescence in dose-dependent fashion:
Respective proteins (1 µM) were incubated with the compounds at different doses. Proteins were excited at 280 ± 10 nm and fluorescence spectra were measured from 315 ± 20 nm to 600 ± 20 nm with a step size of 2 nm. A) STARD1 and 21a. B) ORP1 and 21a. C) ORP2 and 21a. D) ORP2 and 15f.
(1 picture or pasted object on this page, not shown here)
Superdex 75 pg (Cytiva) using an ÄKTA Explorer (Cytiva) in buffer containing 10 mM Tris -HCl, pH 8, 150 mM NaCl, 5 % glycerol and 2 mM DTT.
Fluorescence intensity and polarisation
Fluorescence intensity and polarisation (FP) experiments were performed in a buffer containing 20 mM HEPES pH 7.5, 300 mM NaCl, 0.01 %v/v Tween-20, 0.5% glycerol and 2 mM DTT in a final volume of 30 µl in black, flat-bottom, non-binding 384-well plates (Corning). All compounds were dispensed using the LabCyte Echo 550 Liquid handler. […] For competition experiments, 20 nM 22-NBD-cholesterol or 80 nM 25-NBD-cholesterol was mixed with protein and incubated with desired concentrations of screening compounds (Table S4) The fluorescence polarisation signal was measured using a Spark Cyto multimode microplate reader (Tecan) with filters set at 485 ± 20 nm for excitation and at 535 ± 20 nm for emission. […]

SMILES: C[C@]12CC[C@@H]3C[C@H]1CC[C@@]21C(=Nc2ccc(-c4ccccc4)cc21)O3 [Compound 21a]
- Quenching of intrinsic fluorescence of ORP1: dose-dependently quenches
